These are literature values, as cited in US6622729B1, “Selective photodynamic treatment” (priority 1999, dated 2003).

The conditions of this data set: SnET2 administered in 0.5 and 1 mg/kg doses.

Consider `CCOC(=O)C1=Cc2c3nc(cc4nc(cc5[n-]c(cc6[n-]c2c(C)c6CC)c(C)c5CC)C(C)=C4CC)[C@@H](C)[C@]13CC.[Cl-].[Cl-].[Sn]` (racemic) [SnET2, tin ethyl etiopurpurin], for which the systemic toxicity entry is recorded as “no apparent systemic toxicity”.
